Source: patent US8258119B2, “Anti-cancer drugs and uses relating thereto for metastatic malignant melanoma and other cancers” (Kasina Laila Innova Pharmaceuticals, priority 2008, dated 2012)
Converted amounts (≈) assume the structure as drawn.

Tests used:
[1] = test system: MIA-PaCa2 human pancreas tumor cells; experiment: MTT cell proliferation assay in MIA-PaCa2 cells; format: cell-based; conditions: MIA PaCa-2, read-out: 50% of inhibitory concentration, IC50 MIA-PaCa2
Method: (§1) MTT [3-(4,5-dimethylthiazol-2-yl)-2,5-diphenyltetrazolium bromide] incorporation based cell proliferation assay was performed using standard procedure with some modifications (38). The cytotoxic efficacy of the test compounds were evaluated in human malignant melanoma A2058 cells by MTT cell proliferation assay kit (Roche Applied Sciences, Germany). The assay was carried out according to the instruction provided by the vendor. Briefly, equal numbers of cells was plated in 96-well flat-bottomed plates in 100 μl of medium and were exposed to either DTIC or its derivative compounds at various concentrations up to 150 μg/ml for a period of three days. Vehicle control culture wells received only a maximum of 0.5% DMSO. Thereafter, 0.5 mg/ml of MTT reagent was added to each well and the microplate was incubated further for 4 h at 37° C. in presence of 5% CO2. Finally, the cells were solubilized by adding solubilizing solution and allowed to incubate at 37° C. overnight. After complete solubilization of the formazan crystals the absorbance was read at 540 nm in a microplate reader (BioRad, USA). The results (mean OD±SD) obtained from quadruplicate wells were used in calculation to determine the inhibition of cell proliferation (50% inhibitory concentration, IC50) of the test compounds.
(§2) Anti-tumor growth potential of Compound 1 and Compound 6 were evaluated in MCF-7 human breast tumor cells, MIA-PaCa2 human pancreas tumor cells and DU145 human prostate tumor cells by using MTT based cell proliferation studies as described earlier (example 19). The results (mean OD±SD) obtained from quadruplicate wells were used in calculation to determine the inhibition of cell proliferation (50% of inhibitory concentration, IC50) of the test compounds (Table 4).

[2] = test system: normal human skin epithelial HS.531.sk cells; experiment: LDH leakage assay on normal skin cells (tumor selectivity); format: cell-based; conditions: 120 μg/ml
Method: From the data obtained from the MTT assay (Table J), compound 1, compound 6 and compound 13 have been selected and their cytotoxicity potential has been further validated in LDH leakage assay. […] Cytotoxicity potential of DTIC and its derivative compounds were evaluated by measuring the leaked lactate dehydrogenase (LDH) into the culture supernatant (LDH Cytotoxicity Detection Roche Applied Sciences, Germany). The leaked LDH is directly proportional to the cell damage done by the cytotoxic compounds. In brief, cells were treated with test compounds at various concentrations and incubated for 48 h. Vehicle control culture wells received only a maximum of 0.5% DMSO. The cell free culture supernatants were mixed with catalyst and dye solution and allowed to incubate for 15 min at room temperature. Finally, the reaction was stopped and the optical density was measured at 492 nm in a microplate reader (BioRad, USA). The results (mean OD±SD) obtained from quadruplicate wells were used in calculation to determine the cytotoxicity potential (50% of inhibitory concentration, IC50) of the test compounds. A plot of loss of cell viability as indicated by the leakage of LDH versus drug concentration is depicted in FIG. 1.
Next, to check whether the DTIC derivative compounds can selectively kill the melanoma cells without or minimally affecting the normal cells, we assessed the effect of the test compounds on normal human skin epithelial HS.531.sk cells. […] Whereas, 120 μg/ml of DTIC, compound 1, […] caused 5.8%, 4.2%, 2.4%, and 2.4% reduction in normal cell viability, respectively.

[3] = test system: A2058, human malignant melanoma cells; experiment: MTT cell proliferation assay in A2058 cells; format: cell-based; conditions: A2058, 72 h, three days exposure
Method: as §1

[4] = test system: DU145 human prostate tumor cells; experiment: MTT cell proliferation assay in DU145 cells; format: cell-based; conditions: DU-145, read-out: 50% of inhibitory concentration, IC50 DU145
Method: as §1, §2

[5] = test system: MCF-7 human breast tumor cells; experiment: MTT cell proliferation assay in MCF-7 cells; format: cell-based; conditions: MCF7, read-out: 50% of inhibitory concentration, IC50 MCF-7
Method: as §1, §2

[6] = test system: PARP cleavage in A2058 human melanoma cells; experiment: PARP cleavage Western immunoblot assay; format: cell-based; conditions: 100 μg/ml, versus DTIC at the same concentration
Excerpt: Proteolytic cleavage of PARP by caspases is regarded as a hallmark of apoptosis. Caspase-3 cleaves the 113-kDa PARP to generate 89- and 24-kDa polypeptides (39). Next, with an intention to evaluate the comparative apoptotic potential of DTIC and test products compound 1, compound 6 and compound 13, PARP cleavage assay has been performed on A2058 cells. PARP cleavage was estimated by using Western immunoblot assay as described earlier (40). FIG. 3 illustrates comparative efficacy of PARP cleavage by the test compounds at a fixed dose of 100 μg/ml. […] No. 3 treated A2058 cells is 56.6% more than in DTIC treated cells at the same concentration.

**Q.** Which melting point does the source give for CN(C)/N=N/c1ccsc1C(=O)[O-].[K+] here?
**A.** 274 to 280 °C

**Q.** With CN(C)/N=N/c1ccsc1C(N)=O [Compound 1, 3-[(dimethylamino)diazenyl]thiophene-2-carboxamide] as the compound, how does the IC50 [1] read?
**A.** 168 µg/mL (≈ 850 µM)

**Q.** What about the “reduction in normal cell viability” value [2] of the same compound?
**A.** 4.2%

**Q.** What about the IC50 [3] of the same compound?
**A.** 78.7 µg/mL (≈ 397 µM)

**Q.** And the IC50 [4]?
**A.** 153 µg/mL (≈ 773 µM)

**Q.** And the melting point?
**A.** 168 to 170 °C

**Q.** What about the IC50 [5] of the same compound?
**A.** 130 µg/mL (≈ 657 µM)

**Q.** Which results are given for CN(C)/N=N/c1c(Br)csc1C(N)=O [Compound 2, 3-[(dimethylamino)diazenyl]-4-bromothiophene-2-carboxamide]?
**A.** IC50 [3]: 113 µg/mL (≈ 409 µM); melting point: 194 to 196 °C

**Q.** With CN(C)/N=N/c1cc([N+](=O)[O-])sc1C(N)=O [Compound 3, 3-[(dimethylamino)diazenyl]-5-nitrothiophene-2-carboxamide] as the compound, how does the “reduction in normal cell viability” value [2] read?
**A.** 2.4%

**Q.** What about the “expression of cleaved subunit of PARP at 89 kDa, more than in DTIC treated cells” value [6] of the same compound?
**A.** 56.6%

**Q.** Which “reduction in normal cell viability” value [2] does the source give for COc1c(C(N)=O)sc(C(N)=O)c1/N=N/N(C)C [Compound 4, 4-[(dimethylamino)diazenyl]-3-methoxythiophene-2,5-dicarboxamide] here?
**A.** 2.4%

**Q.** And the melting point?
**A.** 226 to 228 °C

**Q.** For CN(C)/N=N/c1cc(-c2ccccc2)sc1C(N)=O [Compound 5, 3-[(dimethylamino)diazenyl]-5-phenylthiophene-2-carboxamide], which melting point is on record?
**A.** 220 to 222 °C

**Q.** With CN(C)/N=N/c1cc([N+](=O)[O-])sc1C(=O)O [Compound 7, 3-[(dimethylamino)diazenyl]-5-nitrothiophene-2-carboxylic acid] as the compound, how does the melting point read?
**A.** 184 to 186 °C

**Q.** For CN(C)/N=N/c1cc(-c2ccccc2)sc1C(=O)O [Compound 8, 3-[(dimethylamino)diazenyl]-5-phenylthiophene-2-carboxylic acid], which melting point is on record?
**A.** 162 to 166 °C

**Q.** What does the source list for CN(C)/N=N/c1ccsc1C(=O)NCCO [Compound 9, {3-[(dimethylamino)diazenyl] (2-thienyl)}-N-(2-hydroxyethyl)-carboxamide]?
**A.** IC50 [3]: 214 µg/mL (≈ 884 µM); melting point: 118 to 122 °C

**Q.** With CNC(=O)c1sccc1/N=N/N(C)C [Compound 10, {3-[(dimethylamino)diazenyl](2-thienyl)}-N-methylcarboxamide] as the compound, how does the IC50 [3] read?
**A.** 179 µg/mL (≈ 842 µM)

**Q.** And the melting point?
**A.** 98 to 102 °C

**Q.** Which IC50 [3] does the source give for CN(C)/N=N/c1ccsc1C(=O)NCCN [Compound 11, N-(2-aminoethyl){3-[(dimethylamino)diazenyl](2-thienyl)}-carboxamide] here?
**A.** 164 µg/mL (≈ 681 µM)

**Q.** With CN(C)/N=N/c1csc(C(N)=O)c1 [Compound 12] as the compound, how does the IC50 [3] read?
**A.** 165 µg/mL (≈ 832 µM)

**Q.** And the melting point?
**A.** 128 to 130 °C

**Q.** With CN(C)/N=N/c1cscc1C(N)=O [Compound 13, 4-[(dimethylamino)diazenyl]thiophene-3-carboxamide] as the compound, how does the IC50 [3] read?
**A.** 48.8 µg/mL (≈ 246 µM)

**Q.** And the melting point?
**A.** 168 to 172 °C

**Q.** With Cn1nnc2sc(N)cc2c1=O [Compound 17, 6-amino-3-methylthiopheno[2,3-d]1,2,3-triazin-4-one] as the compound, how does the IC50 [3] read?
**A.** 147 µg/mL (≈ 805 µM)

**Q.** And the melting point?
**A.** 190 to 194 °C

**Q.** For Cn1nnc2cc(-c3ccccc3)sc2c1=O [Compound 18, 3-methyl-6-phenylthiopheno[3,2-d]1,2,3-triazin-4-one], which melting point is on record?
**A.** 220 to 222 °C
